Consider one compound from patent US20030203969A1, “Pharmaceutically active aromatic guanylhydrazones” (priority 2000, published 2003).

One data set relates to VZV strain ELLEN. As to the kind of experiment: VZV plaque reduction assay in MRC-5 cells. The data set is classed as cell-based, Varicella-zoster virus. The method, then:
MRC-5 (human embryonic lung fibroblast) cells (ATCC Cat. No. CCL-171) are seeded in 24 well plates using Eagle's Minimum Essential Medium (EMEM) supplemented with 10% heat-inactivated fetal bovine serum (FBS), L-glutamine, sodium pyruvate, non-essential amino acids, penicillin, and streptomycin. The plates are then incubated overnight at 37° C. and 5% CO2. The following day, media is aspirated and approximately 50-100 pfu (plaque forming units) of VZV strain ELLEN is added to the wells of each plate in a volume of 200 μl of assay media (EMEM supplemented with 5% heat-inactivated FBS, L-glutamine, sodium pyruvate, non-essential amino acids, penicillin, and streptomycin). The remaining wells of each plate serve as cellular control wells and receive 200 μl of assay media without virus. The virus is allowed to adsorb onto the cells for 1 hr at 37° C. and 5% CO2. Two dilutions of each test drug are prepared by diluting them in assay media containing 0.5% Methylcellulose. After the incubation period, 1 ml of each drug dilution is added to triplicate wells of a plate. Assay media (without drug) containing 0.5% Methylcellulose is added to the three cell control wells and to three virus control wells on each plate. The plates are incubated for 9-12 days to allow for plaque formation. […]

A further data set relates to BCBL-1 cells. As to the kind of experiment: Compound toxicity in BCBL-1 cells (Cell Titer Aqueous One). Format: cell-based, human. As to conditions: read-out: TC50 (the source's name). As to the method: The human BCBL-1 cell line is available through the AIDS Reference and Reagent Program (Cat.No. 3233). This cell line was derived from a body cavity-based lymphoma latently infected with HHV-8. Culturing these cells in the presence of phorbol ester induces a lytic infection cycle, resulting in the release of viral particles into the medium. Compound efficacy in this proposed assay is determined using TaqMan PCR technology, and compound toxicity is measured by addition of Promega's Cell Titer Aqueous One Solution (metabolic dye).
12. Duplicate plates will be set up plating media in place of TPA for evaluation of compound toxicity.
12. Twenty microliters of Cell Titer Aqueous One Solution (Promega) will be added to each well of the toxicity plates. Plates will be incubated at 37° C. in a humidified CO2 incubator for 4 hours or until sufficient color development has occurred. Plates will be read on a VMax microtiter plate reader at a wavelength of 490/650 nm. Toxicity of the test compound will be determined by comparing the optical density of test wells with that of control wells.

In data set [1] the test system is Lamivudine-resistant, mutant HBV. As to the kind of experiment: Transfected Lamivudine-resistant mutant HBV production in HepG2 cells. Format: cell-based, Hepatitis B virus. As to the method: (§1) Human HepG2-2.2.15 cells (ATCC Cat. No. CRL-11997), chronically infected with HBV, are plated in 96-well microtiter plates in DMEM medium supplemented with fetal bovine serum. After incubation at 37° C. in a humidified, 5% CO2 environment for 16-24 hours, the monolayer of HepG2-2.2.15 cells is washed and the medium is replaced with complete medium containing various concentrations of test compound. Every three days during the experiments, the culture medium is replaced with fresh medium containing the appropriately diluted test compound. Six days following the initial administration of the test compound, the cell culture supernatant is collected and clarified by centrifugation. The cell viability is evaluated by a dye uptake procedure (Promega's Cell Titer Aqueous One Solution). Virion-associated HBV DNA present in the tissue culture supernatant is amplified employing PCR technology using primer pairs derived from the HBV strain ayw. Subsequently, the PCR-amplified HBV DNA is detected in real-time by monitoring increases in fluorescence signals that result from exonucleolytic degradation of a quenched fluorescent probe molecule following hybridization of the probe to the amplified HBV DNA (TaqMan; Perkin-Elmer).
The same type of experiments was additionally performed with a mutant, Lamivudine-resistant HBV strain, which was transfected into HepG2 cells. […]

In another data set the test system is HIV. As to the kind of experiment: Relevant HIV cellular systems (summary statements). The data set is classed as cell-based. The source says:
Thus another aspect of the present invention is directed to the use of the compounds of the general formula (I) and/or pharmaceutically active salts as inhibitors of elF-5A activation and HIV replication.
The present invention therefore provides a genus of guanylhydrazone-substituted compounds that are useful as inhibitors of HIV-1, HIV-2, HTLV-I as well as for treating diseases associated with those viruses.

Data set [2] concerns MRC-5 (human embryonic lung fibroblast) cells. As to the kind of experiment: Drug toxicity in MRC-5 cells (CellTiter 96). As to conditions: six day incubation, read-out: TC50 (the source's name). The data set is classed as cell-based. As to the method: Drug toxicity is determined in parallel by seeding MRC-5 cells in 96 well plates and adding drugs to triplicate wells at two dilutions. After a six day incubation period, cell viability is determined using CellTiter 96 Aqueous One Solution (Promega).

Another data set concerns HepG2 cells. The data set is classed as cell-based, human. As to conditions: Lamivudine-resistant HBV experiment, read-out: TC50 (the source's name). The method, then: as §1
The same type of experiments was additionally performed with a mutant, Lamivudine-resistant HBV strain, which was transfected into HepG2 cells.

The term IC50 denotes the concentration at which inhibition is half-maximal.

With `CC(=NNC(=N)N)c1cc(NC(=O)CCCCCCCCC(=O)Nc2cc(C(C)=NNC(=N)N)cc(C(C)=NNC(=N)N)c2)cc(C(C)=NNC(=N)N)c1` [Compound 4, N,N′-bis (3,5-diacetylphenyl) decane diamide tetrakis (amidinohydrazone)], the 50% inhibitory concentration (IC50) was 4.69 µM in the data set on VZV strain ELLEN (MRC-5 cells newly infected with VZV) and 2.78 µM in data set [1] (Lamivudine-resistant mutant HBV transfected into HepG2 cells, read-out: IC50 (μM) Virion-DNA). Moreover, the Comments result in the data set on VZV strain ELLEN (VZV, MRC-5 cells) is “Significant activity”; in data set [1] (Lamivudine-resistant mutant HBV) it was “Active”. The CC50 in the data set on BCBL-1 cells came to 78.9 µM; in data set [2], 13.6 µM; with HepG2 cells, 24.7 µM. The “cellular toxicities at effective antiviral dosages” value in the data set with HIV (HIV cellular systems) was “without apparent cellular toxicities”. The “inhibition of HIV replication” value in the data set with HIV (T-cell-tropic, macrophage-tropic, primary patient isolates, multidrug-resistant HIV strains) is “submicromolar range”.
